These results are taken from patent US20240398771A1, “TREATMENT OF SCLERODERMA AND RAYNAUD'S SYNDROME” (Aisa Pharma, Inc., priority 2023, published 2024).

For assay [1], the system named is participants with SSc-RP. Put plainly: SHAQ Visual Analog Scale - Intestinal Problems. The class given is in vivo, human. Conditions: Modified ITT, Part A. Here is the method:
Results: Patients in the study were administered the Scleroderma Health Assessment Questionnaire (SHAQ) at the time of study entry and during clinic visits following the treatment period. The study is a two-part, parallel arm design, prospective, double-blind, randomized study conducted in Australia (Flinders Medical Center). 27 patients were randomized into the first phase of the study, following which a DSMB meeting was held, which reviewed data on the primary study endpoint and key Raynaud's secondary endpoints. Data on the SHAQ was not available for the DSMB to review. The mITT population, in which any data was available post treatment was 24 patients was the analysis population for this first part of the study. The second part (i.e., part B) of the study will randomize 36 patients in a double blind, randomized, prospective, placebo controlled, crossover study. In the first part (i.e., Part A) of the study for which data is presented, patients were randomized into 6 groups, cilnidipine at two doses (10 and 20 mg) alone and in combination with tadalafil 5 mg, tadalafil 5 mg alone, and placebo. […] The DSMB recommended that the study proceed into its double blind prospective cross overpowered second phase and compare cilnidipine 20 mg alone to placebo. […] Cilnidipine treatment may reduce patient-reported SSc disease disability compared to placebo • b. Cilnidipine treatment may reduce patient-reported SSc disease alternative disability compared to placebo • c. Cilnidipine treatment may reduce patient-reported SSc disease pain* compared to placebo • d. Cilnidipine treatment may reduce patient-reported SSc disease severity compared to placebo • e. Cilnidipine treatment may reduce patient-reported SSc disease skin ulcer severity rating compared to placebo • f Cilnidipine treatment may reduce patient-reported SSc disease breathing difficulty compared to placebo • g. […] SSc disease pain comprises not only pain from Raynaud's but joint pain, headache, odynophagia, back pain, pain from skin ulceration, and neuropathic pain). Table E includes results of the Scleroderma Health Assessment Questionnaire.

In assay [2] the test system is participants with SSc-RP. Put plainly: SHAQ Visual Analog Scale - Raynaud's. On the set-up: Visual Analog Scale-Raynaud's, Baseline, Mean / Visual Analog Scale-Raynaud's, Baseline, Median / Visual Analog Scale-Raynaud's, In Clinic Visit (Day 12), Mean / Visual Analog Scale-Raynaud's, In Clinic Visit (Day 12), Median: scale not given here. The following applies: Modified ITT, Part A. The class given is in vivo, human. An excerpt:
The SHAQ includes a Raynaud's VAS, which will be reported at screening and each in-clinic visit. The absolute change in Raynaud-VAS, assessed by the participants response to the SHAQ question ‘In the past 7 days, how much have your Raynaud's interfered with your daily activities?’ at baseline and the end of each dosing period will be calculated similar to frequency data as before. […]

As for `COCCOC(=O)C1=C(C)NC(C)=C(C(=O)OC/C=C/c2ccccc2)C1c1cccc([N+](=O)[O-])c1` (stereo not drawn) [Cilnidipine, 1,4-dihydro-2,6-dimethyl,4-(3-nitrophenyl)-3,5-pyridinedicarboxylic acid 2-methoxyethyl (2 E)-3-phenyl-2-propenyl ester], in the assay on participants with SSc-RP [1] (Cilnidipine 20 mg), the “Visual Analog Scale-Intestinal Problems, Baseline, Median” value turned out to be 1.000. Also, in the assay with participants with SSc-RP [2] (Cilnidipine 10 mg), the “Visual Analog Scale-Raynaud's, Baseline, Mean” value came to 1.600; the “Visual Analog Scale-Raynaud's, Baseline, Median” value stood at 1.000; the “Visual Analog Scale-Raynaud's, Change from Baseline, Median” value (shortened to “Visual Analog Scale-Raynaud's, Change”) is recorded as 0.350; the “Visual Analog Scale-Raynaud's, In Clinic Visit (Day 12), Median” value is 1.700. Also, in the assay with participants with SSc-RP [2] (Cilnidipine 20 mg), the “Visual Analog Scale-Raynaud's, Baseline, Mean” value was found to be 2.300; the “Visual Analog Scale-Raynaud's, Baseline, Median” value worked out at 2.500; the “Visual Analog Scale-Raynaud's, Change” value is given as −1.100; the “Visual Analog Scale-Raynaud's, In Clinic Visit (Day 12), Median” value is reported as 1.100. Besides, in the assay with participants with SSc-RP [2] (Cilnidipine 20 mg), the “Visual Analog Scale-Raynaud's, Percent Change from Baseline, Median” value is −44.00%.
As for `CN1CC(=O)N2[C@H](c3ccc4c(c3)OCO4)c3[nH]c4ccccc4c3C[C@@H]2C1=O` [Tadalafil], in the assay on participants with SSc-RP [1] (Tadalafil 5 mg), the “Visual Analog Scale-Intestinal Problems, Baseline, Mean” value stood at 0.925; the “Visual Analog Scale-Intestinal Problems, Baseline, Median” value is given as 0.950; the “Visual Analog Scale-Intestinal Problems, Change from Baseline, Mean” value is listed as −0.250; the “Visual Analog Scale-Intestinal Problems, Change from Baseline, Median” value was −0.150. In the assay on participants with SSc-RP [1] (Tadalafil 5 mg), the “Visual Analog Scale-Intestinal Problems, In Clinic Visit (Day 12), Mean” value came to 1.175; the “Visual Analog Scale-Intestinal Problems, In Clinic Visit (Day 12), Median” value was 0.100; the “Visual Analog Scale-Intestinal Problems, Percent Change from Baseline, Mean” value was −2.55%; the “Visual Analog Scale-Intestinal Problems, Percent Change from Baseline, Median” value is −88.89%. In addition, in the assay on participants with SSc-RP [2] (Tadalafil 5 mg), the “Visual Analog Scale-Raynaud's, Baseline, Median” value is reported as 0.500; the “Visual Analog Scale-Raynaud's, Change” value is listed as −0.150; the “Visual Analog Scale-Raynaud's, In Clinic Visit (Day 12), Mean” value is recorded as 1.500; the “Visual Analog Scale-Raynaud's, In Clinic Visit (Day 12), Median” value was found to be 0.400. Also, in the assay on participants with SSc-RP [2] (Tadalafil 5 mg), the “Visual Analog Scale-Raynaud's, Percent Change from Baseline, Mean” value is −20.78% and the “Visual Analog Scale-Raynaud's, Percent Change from Baseline, Median” value is −37.35%.
